Test results as given in patent US20030229114A1, “Pyrroloquinoline quinone drugs as a neuroprotectant and methods of use thereof” (priority 2002, published 2003).
Several values for one entry are separate records, joined by “and”; a condition that tells them apart may be missing. Equal entries are not always repeated. Entries after “also recorded” stand apart in the source; their conditions may differ.

Assays:
[1] = test system: cultured rat forebrain neurons; assay: Survival assay of neuronal cultures (Alamar Blue reduction, 24 hr); settings: for Synergism with NMDA in producing neurotoxicity: DEA/NO 100 μM, DPT/NO 300 μM; for Cell (neuronal) survival: ONOO− 100 μM alone, without PQQ; for Effect on neurotoxicity induced by NMDA plus DETA/NO: PBN at 10 mM, TEMPO at 1 mM applied 1 hr before
Description: Neuronal cultures were prepared from embryonic day 16 Sprague Dawley rat fetuses using methods similar to those previously described (Dichter, 1978) but modified to produce cultures that contained <1% astrocytes (Rosenberg and Aizenman, 1989; Rosenberg, 1991; Rosenberg et al., 1992; Wang et al., 1998). Cultures were initially plated on poly-L-lysine-coated 24-well plastic plates (Costar, Cambridge, Mass.) using an 80:10:10 (v/v) mixture ofDMEM (Life Technologies 11960-010), Ham's F-12 (Sigma, N-4888), heat-inactivated iron-supplemented calf serum (Hyclone A2151), containing 2 mM glutamine, 25 mM HEPES, 24 U/ml penicillin, and 24 μg/ml streptomycin and maintained in a 5% CO2 (balance air) incubator at 36° C. Cell proliferation was inhibited by exposure to 5 μM cytosine arabinoside at 24 hr in vitro for 72 hr. On the fourth day of culture, the medium was completely removed and replaced with 90% MEM, 10% Nuserum IV (Collaborative Research), 2 mM glutamine, 5 mM HEPES, containing 50 units/ml superoxide dismutase (Boehringer Mannheim, Indianapolis, Ind.), 20 units/ml catalase (Sigma CV-40), total glucose 11 mM, and total sodium bicarbonate 9.3 mM, plus 2% B27 supplement (Life Technologies 17504-036). Medium was not subsequently changed. To prevent evaporation of water, culture dishes were kept in wet dishes containing filter paper that was always kept wet.
In all experiments, 24-well plates were first washed three times in Hank's balanced salt solution (HBSS) containing 0.1% bovine serum albumin (BSA), and then they were placed in Earle's balanced salt solution (EBSS, which is composed of 116 mM NaCl, 5.4 mM KCl, 1.8 mM CaCl2, 0.8 mM MgSO4, 26 mM NaHCO3, 1 mM NaH2PO4 and 5.5 mM D-glucose). Experiments were carried out exclusively in EBSS. […] PQQ was directly dissolved in EBSS.
Survival of cells was determined after 24 hr exposure to the test compounds by assessing the ability of cultures to reduce Alamar Blue (Trek Diagnostic Systems, Inc., Westlake, Ohio) as an index of viability (McGahon et al., 1995). Details of this procedure have been provided elsewhere (Back et al., 1998, 1999). In brief, the test medium was removed after 24 hr, and then replaced with EBSS plus a 1:100 dilution of Alamar Blue. After 2 hr exposure, the medium was diluted 50-fold with water, and the fluorescence intensity was determined in a Hitachi fluorescence spectrophotometer using an excitation wavelength of 530 nm and an emission wavelength of 590 nm. The photomultiplier voltage was set at 700 V. In some experiments, the cell viability determined by Alamar Blue was compared to that determined by the assay of lactate dehydrogenase (LDH) release (Koh and Choi, 1987).

[2] = test system: cultured rat forebrain neurons; assay: Assay of intracellular ATP in neuronal cultures (firefly luciferase); type: cell-based
Description: (§1) Medium was not subsequently changed.
Experiments were carried out exclusively in EBSS. […] PQQ was directly dissolved in EBSS.
The Bioluminescent Somatic Cell Assay kit from Sigma (catalog No. FL-ASC) was used for assay of ATP as previously described (Rosenberg et al., 2000). At selected time points after addition of drug or vehicle, medium was removed, and then replaced with 200 μl of cell lysis agent. After brief agitation, the medium was transferred to microcentrifuge tubes that contained 200 μl of water. The tubes were placed on wet ice until assay. ATP assay mix was used at 25-fold dilution, and 100 μl of the extract was assayed.

[3] = test system: cultured rat forebrain neurons; assay: Measurement of intracellular cGMP in neuronal cultures (enzyme-linked immunoassay); type: cell-based
Description: as §1
Intracellular cGMP was assayed by enzyme-linked immunoassay (Amersham). Cultures were washed three times, and then medium was replaced by EBSS with or without PQQ or SOD. The non-specific phosphodiesterase inhibitor, 3-isobutyl-1-methylxanthine (IBMX) at 100 μM was present in all conditions. DEA/NO, SIN-1 and peroxynitrite were added for 5 min, and then the medium was replaced with 200 μl of releasing reagent provided in the kit. The plates were agitated for 20 min at room temperature, and 20 μl of acetylation reagent was added. After 5 min, 50 μl samples were taken for assay.

G93A-SOD transgenic mice = settings: cited from earlier work
BSA = assay: Western blot of BSA tyrosine nitration, cell-free (anti-nitrotyrosine antibody); type: biochemical, bovine; settings: SIN-1 1 mM alone
Description: BSA (0.5 mg/ml) in EBSS with or without PQQ was exposed to SIN-1 or peroxynitrite for 1 hr, and then 4× sample buffer (40% glycerol, 20% β-mercaptoethanol, 0.004% bromophenol blue, 6.4% SDS, 25% 1M Tris-HCl, pH 6.8) was added. After the samples were heated for 5 min, 2 μg protein per lane was subjected to SDS-PAGE analysis, followed by transfer to PVDF membrane (NEN Life Science, Boston, Mass.) and reacted with a mouse anti-nitrotyrosine monoclonal antibody (Upstate Biotechnology). Proteins were visualized with horseradish peroxidase-conjugated sheep anti-mouse immunoglobulin G (IgG) followed by detection with enhanced chemiluminescence.

Oligodendrocytes = assay: In vitro white matter injury assay: SIN-1 toxicity in oligodendrocytes; type: cell-based; settings: 2 hr exposure in EBSS; examined at 24 hr
Description: Oligodendrocytes were exposed to various concentrations of SIN-1 (0, 0.25, 0.5, 1 and 2 mM) in EBSS for 2 hr with or without PQQ (100 μM), then washed with HBSS containing 0.1% BSA for 2 times. Oligodendrocytes were then returned to the culture medium. The neurotoxicity was examined at 24 hr.
To illustrate the neuroprotective benefits of the invention, PQQ was used to show oligodendrocytes protection from cell toxicity in an in vitro white matter injury assay. Oligodendrocytes were exposed to various concentrations of SIN-1 (0, 0.25, 0.5, 1 and 2 mM) in EBSS for 2 hr with or without PQQ (100 μM), then washed with HBSS containing 0.1% BSA for 2 times. Oligodendrocytes were then returned to the culture medium. The neurotoxicity was examined at 24 hr.

[4] = nitric oxide donor 1 mM alone (FIG. 6B)
[5] = nitric oxide donor 1 mM without MK-801 (FIG. 5A)
[6] = one hour after nitric oxide donor 1 mM alone
[7] = five minutes, agent alone: SIN-1 100 μM, ONOO− 100 μM or DEA/NO 10 μM, IBMX 100 μM

CCN(CC)/[N+]([O-])=N/O.CCNCC [DEA/NO, diethylamine NONOate]
Neurotoxicity to neurons in culture ([1]; 1 mM, in three out of six experiments): did not cause any toxicity
Synergism with NMDA in producing neurotoxicity [1]: synergism
Neuronal survival [1, 4]: 48.7±14.6 % of control
Neuronal survival [1, 5]: 18.2±5.3%
Intracellular ATP [2, 6]: 51.6±5.8 % of control and 50.8±20.9 % of control
Intracellular cGMP content [3, 7]: 250±15.5 % of control and 215±32.2 % of control and 318.5±31 % of control

NCCN(CCN)/[N+]([O-])=N/O [DETA/NO, diethylaminetriamine NONOate]
Synergistic effect with kainate in producing neurotoxicity ([1]; DETA/NO 300 μM with kainate 20 μM): synergistic effect
Neuronal survival [1, 4]: 25.2±10.6 % of control
Neuronal survival [1, 5]: 27.9±8.0%

NCCCN(CCCN)/[N+]([O-])=N/O [DPT/NO, dipropylenetriamine NONOate]
Synergism with NMDA in producing neurotoxicity [1]: synergism
Neuronal survival [1, 4]: 1.9±0.8 % of control
Neuronal survival [1, 5]: 6.5±5.3%
Intracellular ATP [2, 6]: 62.6±4.5 % of control and 64.9±13.7 % of control

[Cl-].[Mn+3].[O-]c1ccccc1C=NCCN=Cc1ccccc1[O-] [EUK-8]
Effect on protein tyrosine nitration (G93A-SOD transgenic mice): reduced protein tyrosine nitration
Effect on survival of transgenic animals (G93A-SOD transgenic mice): prolonged survival

COc1cccc(C=NCCN=Cc2cccc(OC)c2[O-])c1[O-].[Cl-].[Mn+3] [EUK-134]
Effect on protein tyrosine nitration (G93A-SOD transgenic mice): reduced protein tyrosine nitration
Effect on survival of transgenic animals (G93A-SOD transgenic mice): prolonged survival

O=C(O)c1ccc(C2=C3C=CC(=N3)C(c3ccc(C(=O)O)cc3)=c3ccc([nH]3)=C(c3ccc(C(=O)O)cc3)c3ccc([n-]3)C(c3ccc(C(=O)O)cc3)c3ccc2[n-]3)cc1.[Cl-].[Mn+3] (centres unmarked) [MnTBAP, Mn (III) tetrakis (4-benzoic acid) porphyrin chloride]
Effect on SIN-1 toxicity ([1]; MnTBAP 100 μM, SIN-1 1 mM): completely protected
Effect on neurotoxicity induced by SIN-1 ([1]; MnTBAP (TBAP), SIN-1 1 mM): completely blocks
Effect on ONOO− (peroxynitrite) toxicity ([1]; MnTBAP, ONOO− 100 μM): blocked; also recorded: fully protected

CN[C@H](CC(=O)O)C(=O)O [NMDA]
Toxicity to neurons, applied alone ([1]; 24 h exposure, NMDA 20 μM or DETA/NO 300 μM): does not produce toxicity

O=NOO [ONOO^−, peroxynitrite]
Cell (neuronal) survival [1]: 52.4±0.4%
Cell (neuronal) survival ([1]; listed as peroxynitrite): 49±7.3%
Intracellular ATP ([2]; of control values, 1 hr ONOO− 100 μM alone): 37±9.9%
Intracellular ATP ([2]; of control values, 1 hr ONOO− 100 μM alone, listed as peroxynitrite): 40.5±11%
ATP level after 5 min exposure ([2]; peroxynitrite 100 μM, 5 min): 50 % of its original levels
Intracellular cGMP content [3, 7]: 111±11.2 % of control and 97±14.4 % of control
Intracellular cGMP content ([3]; five minutes, agent alone: SIN-1 100 μM, ONOO− 100 μM or DEA/NO 10 μM, IBMX 100 μM, listed as peroxynitrite): 95.6±4.3 % of control

CC(C)(C)[N+]([O-])=Cc1ccccc1 [PBN, alpha-phenyl-N-tert butyl nitrone]
Effect on neurotoxicity induced by NMDA plus DETA/NO ([1]; 24 hr exposure): not demonstrably neuroprotective; also recorded: no demonstrable effect
Effect on neurotoxicity induced by NMDA plus DETA/NO ([1]; four hour exposure): complete neuroprotection; also recorded: block

N=c1c[n+](N2CCOCC2)[n-]o1 [SIN-1, 3-morpholinosydnonimine]
Exposure time to maximal ATP depletion ([2]; SIN-1 1 mM): 1 h
Intracellular ATP ([2]; of control values, 1 hr exposure to SIN-1 1 mM alone): 43±15.6% and 43.3±18.7%
Nitration of BSA (BSA): strong nitration
Intracellular cGMP content [3, 7]: 192±10.7 % of control and 207.6±11.5 % of control and 220.5±39.4 % of control
EC50 (Oligodendrocytes): 345 ± 91 µM

CC1(C)CCCC(C)(C)N1[O] [TEMPO, 2,2,6,6-tetramethyl-1-piperidinyl-1-oxyl]
Effect on neurotoxicity induced by NMDA plus DETA/NO ([1]; 24 hr exposure): not demonstrably neuroprotective; also recorded: no demonstrable effect
Effect on neurotoxicity induced by NMDA plus DETA/NO ([1]; four hour exposure): complete neuroprotection; also recorded: block

SOD: bovine superoxide dismutase
Effect on SIN-1 toxicity to neurons ([1]; SOD 100 U/ml co-applied with SIN-1 500 μM, no catalase): potentiated
Effect on SIN-1 toxicity ([1]; SOD 100 U/ml together with catalase (CAT) 100 U/ml, SIN-1 1 mM, 24 hr): completely blocked; also recorded: fully prevented
Neuronal survival ([1]; co-application of SOD 100 U/ml and SIN-1 500 μM): 16.8±6.3 % of control and 11.6±1.2 % of control
Intracellular cGMP content ([3]; DEA/NO 10 μM in the presence of SOD 100 U/ml): 310.3±33.4 % of control
Intracellular cGMP content ([3]; ONOO− 100 μM in the presence of SOD 100 U/ml): 131±6 % of control
Intracellular cGMP content ([3]; SIN-1 100 μM in the presence of SOD 100 U/ml): 327.7±39.5 % of control
Effect on cGMP accumulation induced by SIN-1 ([3]; SOD 100 U/ml, SIN-1 100 μM): effect similar to that of PQQ; also recorded: enhanced
